Source: patent US20040044177A1, “Peptide compounds having improved binding affinity to somatostatin receptors” (priority 2002, published 2004)
Bridge positions count the residues as written; N and C are the ends. Square brackets hold non-standard residues; d marks the D form. Peptide text beside a SMILES is read from it. * marks the point of attachment. DOTA = O=C(O)CN1CCN(CC(=O)O)CCN(CC(=O)*)CCN(CC(=O)O)CC1; 1Nal = N[C@@H](Cc1cccc2ccccc12)C(=O)O; Bta = N[C@@H](Cc1csc2ccccc12)C(=O)O; Thr(ol) = C[C@@H](O)[C@H](N)CO

What was measured:
[1] = molecular target: T1, human somatostatin receptor subtype hsst3 (Homo sapiens, UniProt P32745); assay: In vitro binding affinity of peptide analogs (Table III), hsst3; details: DOTA complexed with stable Y or In
Protocol: Table III, presents the binding affinity of the new compounds to human somatostatin receptor subtypes as compared to the compound, Y-DOTA-TATE, described by Srinivasan et al. (U.S. Pat. No. 5,830,431).
(§1) IC50 values were determined as described by Reubi et al. (Eur J Nuc Med 28:836-846, 2001).

[2] = molecular target: human somatostatin receptor subtype hsst5 (Homo sapiens, UniProt P35346); assay: In vitro binding affinity of peptide analogs (Table III), hsst5; details: DOTA complexed with stable Y or In
Protocol: as §1

[3] = molecular target: T1, human somatostatin receptor subtype hsst3; assay: In vitro binding affinity, transfected cell lines, hsst 3; parameters: expressed in transfected cells; details: compared with cpd. 6 (Y-DOTA-LAN)
[4] = molecular target: T2, somatostatin human receptor subtype (hsst) 2 (Homo sapiens, UniProt P30874); assay: In vitro binding affinity, transfected cell lines, hsst 2; details: compared with compound 7 (Y-DOTA-TOC)
T2 construct: expressed in transfected cells
T2 sequence (P30874 whole entry): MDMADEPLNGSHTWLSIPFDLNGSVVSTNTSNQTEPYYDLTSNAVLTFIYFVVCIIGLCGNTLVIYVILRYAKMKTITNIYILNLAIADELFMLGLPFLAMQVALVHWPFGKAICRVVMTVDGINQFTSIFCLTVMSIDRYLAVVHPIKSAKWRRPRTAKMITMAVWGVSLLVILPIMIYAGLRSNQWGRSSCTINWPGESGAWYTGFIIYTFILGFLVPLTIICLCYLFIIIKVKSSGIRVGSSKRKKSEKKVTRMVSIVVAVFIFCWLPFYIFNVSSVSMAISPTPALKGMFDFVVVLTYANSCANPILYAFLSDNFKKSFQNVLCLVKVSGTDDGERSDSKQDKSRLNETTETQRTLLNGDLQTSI

T1 sequence (P32745 whole entry): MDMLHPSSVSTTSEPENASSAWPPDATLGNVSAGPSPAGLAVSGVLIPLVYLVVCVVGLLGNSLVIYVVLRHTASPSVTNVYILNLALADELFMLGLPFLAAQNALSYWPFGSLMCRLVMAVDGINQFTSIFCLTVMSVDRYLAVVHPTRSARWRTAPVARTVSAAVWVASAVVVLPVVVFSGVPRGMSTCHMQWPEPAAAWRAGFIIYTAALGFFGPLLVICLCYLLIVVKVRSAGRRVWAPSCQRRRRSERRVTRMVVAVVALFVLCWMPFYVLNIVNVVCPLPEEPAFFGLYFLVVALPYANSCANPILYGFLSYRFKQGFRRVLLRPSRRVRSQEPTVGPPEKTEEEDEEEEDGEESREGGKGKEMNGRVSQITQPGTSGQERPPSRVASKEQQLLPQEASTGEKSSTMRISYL
Chain of human somatostatin receptor subtype hsst5 (P35346 whole entry): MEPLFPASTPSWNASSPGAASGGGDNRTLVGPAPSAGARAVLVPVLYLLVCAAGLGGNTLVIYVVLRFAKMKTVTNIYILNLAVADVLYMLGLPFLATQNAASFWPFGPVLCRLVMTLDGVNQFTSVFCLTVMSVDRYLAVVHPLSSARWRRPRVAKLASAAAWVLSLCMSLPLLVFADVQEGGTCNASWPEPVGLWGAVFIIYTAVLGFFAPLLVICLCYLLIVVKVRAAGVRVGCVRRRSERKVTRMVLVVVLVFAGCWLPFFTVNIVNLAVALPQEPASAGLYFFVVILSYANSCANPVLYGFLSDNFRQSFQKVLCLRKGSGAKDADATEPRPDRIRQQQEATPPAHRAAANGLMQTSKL

SMILES | IC50 [1] | IC50 [2] | affinity to sst 3 relative to cpd. 6 [3] | binding affinity to sst 2 relative to compound 7 [4]
C[C@@H](O)[C@H](NC(=O)[C@@H]1CSSC[C@H](NC(=O)[C@@H](Cc2ccccc2)NC(=O)CN2CCN(CC(=O)O)CCN(CC(=O)O)CCN(CC(=O)O)CC2)C(=O)N[C@@H](Cc2ccc(O)c(I)c2)C(=O)N[C@H](Cc2c[nH]c3ccccc23)C(=O)N[C@@H](CCCCN)C(=O)N[C@@H]([C@@H](C)O)C(=O)N1)C(=O)O [compound 2] | 170 nM | 65 nM |  | 
C[C@@H](O)[C@@H]1NC(=O)[C@H](CCCCN)NC(=O)[C@@H](Cc2c[nH]c3ccccc23)NC(=O)[C@H](Cc2cccc3ccccc23)NC(=O)[C@@H](NC(=O)[C@@H](Cc2ccccc2)NC(=O)CN2CCN(CC(=O)O)CCN(CC(=O)O)CCN(CC(=O)O)CC2)CSSC[C@@H](C(=O)N[C@H](CO)[C@@H](C)O)NC1=O [cpd. 8, ^90Y-labelled DOTA-(D)Phe-cyclo[Cys-(D) 1-Nal-(D)Trp-Lys-Thr-Cys]-Thr-ol, metal not drawn] ({DOTA}-[dF]C[1Nal][dW]KTC[Thr(ol)]; disulfide 2-7) |  |  | approx. five times better | approx. three times better
C[C@@H](O)[C@@H]1NC(=O)[C@H](CCCCN)NC(=O)[C@@H](Cc2c[nH]c3ccccc23)NC(=O)[C@H](Cc2csc3ccccc23)NC(=O)[C@@H](NC(=O)[C@@H](Cc2ccccc2)NC(=O)CN2CCN(CC(=O)O)CCN(CC(=O)O)CCN(CC(=O)O)CC2)CSSC[C@@H](C(=O)N[C@H](CO)[C@@H](C)O)NC1=O [cpd. 9, ^90Y-labelled DOTA-(D)Phe-cyclo[Cys-(D)3-benzothienylalanyl-(D)Trp-Lys-Thr-Cys]-Thr-ol, metal not drawn] ({DOTA}-[dF]C[Bta][dW]KTC[Thr(ol)]; disulfide 2-7) |  |  |  | approx. three times better
